Data from patent publication US20070292967A1, “Assay for Ligands of the Ecdysone Receptor” (COMMONWEALTH SCIENTIFIC AND INDUSTRIAL RESEARCH OR, priority 2003, published 2007).
Several values for one entry are separate records, joined by “and”; a condition that tells them apart may be missing. Equal values may be shown once.

How the values were obtained:
[1] = target: HaLBD, recombinant LBD heterodimer of ecdysone receptor from Helicoverpa armigera; assay: equilibrium binding of [3H]ponasterone A to HaLBD; conditions: Langmuir isotherm fit
From the text: (§1) Data fitting using a computer algorithm (KalcidaGraph v3.09, Synergy Software) allowed us to obtain Kd values for each receptor-radioligand complex and to ascertain [LBD]tot. Comparison of the [LBD]tot value with the protein concentration of each purified sample indicated the proportion of the recombinant receptor LBD heterodimer molecules that was functional. Testing Fluorescent and Reference Ecdysteroids As Ligands Using a Radioligand-based Assay

LcLBD = assay: removal of bound [3H]ponasterone A from LcLBD by dialysis; type: binding, Lucilia cuprina; conditions: dialysis at room temperature
From the text: The same equilibrium binding experiments indicated the properties of functional receptor LBD heterodimer molecules in each preparation to be as follows: LcLBD, 21%; MpLBD, 16%; BtLBD, 8.4%. The value for HaLBD was not determined directly, but by indirect methods it was assigned a provisional value of 15%. The relatively low activity values agree with published observations for the full-length Drosophila melanogaster receptor, for which Sage et al. (1986) remark that ‘. . . the binding activity of unloaded receptor is inherently labile when subjected to standard protein purification techniques. Therefore, the ecdysteroid receptor needs to remain loaded with hormone during most manipulations’. While we agree that a much higher proportion of functional receptor protein can be obtained by conducting the purification in the presence of an ecdysteroid ligand (data not shown), the resulting receptor-ligand complex is not suitable for use in ligand-binding assays. Moreover, bound ecdysteroid ligands are slow to dissociate from the recombinant receptor LBDs. […] We therefore routinely purified the recombinant receptor LBD heterodimers in the absence of any ligands, and corrected the concentration values of the purified LBD heterodimer preparations to account for the proportion of non-functional heterodimer that was present. […]

[2] = target: BtLBD, recombinant LBD heterodimer of ecdysone receptor from Bemisia tabaci; assay: equilibrium binding of [3H]ponasterone A to BtLBD; conditions: Langmuir isotherm fit
From the text: as §1

[3] = target: LcLBD, recombinant LBD heterodimer of ecdysone receptor from Lucilia cuprina; assay: equilibrium binding of [3H]ponasterone A to LcLBD; conditions: Langmuir isotherm fit
From the text: as §1

[4] = target: MpLBD, recombinant LBD heterodimer of ecdysone receptor from Myzus persicae; assay: equilibrium binding of [3H]ponasterone A to MpLBD; conditions: Langmuir isotherm fit
From the text: as §1

[5] = tested on: Lepidotera versus Diptera; conditions: selectivity between insect orders; cited from earlier work

LcLBD, sequence (O18531 442-677 limits assumed): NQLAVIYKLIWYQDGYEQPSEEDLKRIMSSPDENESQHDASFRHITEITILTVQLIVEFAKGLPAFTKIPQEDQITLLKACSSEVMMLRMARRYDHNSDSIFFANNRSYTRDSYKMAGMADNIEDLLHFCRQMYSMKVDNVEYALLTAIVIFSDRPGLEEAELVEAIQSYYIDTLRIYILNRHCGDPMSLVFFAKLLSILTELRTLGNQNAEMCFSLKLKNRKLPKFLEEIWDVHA
LcLBD, recombinant LBD heterodimer of ecdysone receptor from Lucilia cuprina, sequence (O18531 442-677 limits assumed, one chain of several): as the sequence (O18531 442-677 limits assumed) above

Compound | Kd [1] [nM] | half-life of the radioligand-receptor complex (LcLBD) | Kd [2] | Kd [3] [nM] | Kd [4] | effectiveness against Lepidotera relative to Diptera [5]
[24,25,26,27-^3H(N)]ponasterone A [[^3H]ponasterone A] | 2.53 ± 0.12 | about 10 h | 1.21 nM and 1.2 nM | 1 ± 0.1 | 0.7 nM and 0.72 nM and ~0.7 nM | –
CCc1ccc(C(=O)NN(C(=O)c2cc(C)cc(C)c2)C(C)(C)C)cc1 [RH-5992] | – | – | – | – | – | two to three orders of magnitude more effective
